{"source": "patent US9249468B2", "about": "“Methods and materials related to ovarian cancer” (The Ohio State University, priority 2011, dated 2016)", "key": {"HUVEC cells [1]": {"test_system": "HUVEC cells", "assay": "Co-culture of HUVEC with miR over-expressing ovarian cancer cells: miR transfer", "type": "cell-based", "procedure": "(§1) Total RNA was isolated with Trizol (Invitrogen) from cells and with High Pure miRNA Isolation Kit (Roche) in accordance with manufacturer's instructions for liquid samples. Mature miRs were assessed by the single-tube TaqMan MicroRNA Assay. miR expression was normalized in cells to RNU44 and RNU48. All retrotranscriptase (RT) reactions, including no-template controls and RT minus controls, were run in a GeneAmp PCR 9600 Thermocycler (Applied Biosystems).\n(§2) Each sample was tested in triplicate unless otherwise specified. MicroRNAs from medium samples were isolated. After DNase treatment (Ambion), RNA concentrations were determined with a NanoDrop (Thermo Scientific). In serum samples were normalized to U6snRNA (Applied Biosystems), as indicated. Since U6 is inconsistent, the expression levels of target miRNAs were directly normalized to total RNA (the inventors tested before the absence of miR-296-5p and miR-484 in not conditioned medium)."}, "VEGFR2 [2]": {"test_system": "VEGFR2", "assay": "VEGFR2 expression in HUVEC co-cultured with miR over-expressing ovarian cancer cells", "type": "cell-based", "settings": "HUVEC co-cultured 24 hours with miR over-expressing cells vs control"}, "HGS": {"test_system": "HGS", "assay": "Luciferase miRNA target reporter assay and western blot", "type": "cell-based, human", "settings": "luciferase and western blot analyses", "procedure": "(§3) For overexpression of miR-296 and miR-484, 100 nM of pre-miR-296, pre-miR-484 and pre-negative control-2 (Ambion) was transfected into HEK293 and HUVE cells using Lipofectamine 2000 (Invitrogen). After 24 hr, cells were harvested and lysed in RIPA buffer containing protease inhibitor cocktail (Roche Diagnostic). Protein concentrations of total cell lysates were measured using a Bradford Protein Assay Dye Reagent Concentrate (Bio-Rad), and 35 μg of cell lysates was resolved on SDS-PAGE gels (Bio-Rad) and transferred to nitrocellulose followed by visualization with ECL detection reagents (Denville Scientific). The following primary antibodies were used: mouse monoclonal anti-Hgs (1:1000, Enzo Life Science), rabbit polyclonal anti-VEGF Receptor 2 (1:1000, Cell Signaling Technology), mouse monoclonal anti-VEGF-B (1:200, Santa Cruz Biotechnology), mouse monoclonal anti-a-Tubulin (1:2000, Sigma).\n(§4) The 3′ UTR of the human HGS, and VEGFB genes were PCR amplified using the following primers:\n(§5) and inserted into pGL3 control vector (Promega) by using Xba1 site immediately downstream from the stop codon of firefly luciferase, giving rise to the p3′UTR-HGS, and p3′UTR-VEGFB plasmids. These constructs were used to generate the p3′-UTRmut-HGS primers: […]"}, "SKOV-3 cells [3]": {"test_system": "SKOV-3 cells", "assay": "In vitro sensitivity to CBDCA and Tax of miR-overexpressing cells (MTS assay)", "type": "cell-based", "settings": "overexpression of the miR in SK-OV3 cells; MTS assay 4 days later", "procedure": "(§6) After drugs removal, cells were washed in PBS and incubated in the presence of serum for additionally 4 days. Cells viability was assessed using MTS assay (SIGMA) following manufacturer instructions. The reported IC50 values represent the mean of at least 3 independent experiments. For the evaluation of miR-484 effects on in vitro drug sensitivity parental, scramble and miR-484 expressing cells were plated in 96 wells plates (1000 cells/well) and treated with the indicated doses of CBDCA and TAX. Viability was evaluated after 4 days as described above."}, "MDAH-2774 cells [4]": {"test_system": "MDAH-2774 cells", "assay": "In vitro sensitivity to CBDCA and Tax of miR-overexpressing cells (MTS assay)", "type": "cell-based", "settings": "overexpression of the miR in MDAH-2274 cells; MTS assay 4 days later", "procedure": "as §6"}, "[5]": {"test_system": "ovarian cancer derived cell lines", "assay": "miR expression in stably transfected ovarian cancer cell lines and their conditioned medium (real time PCR)", "type": "cell-based", "settings": "for miR in the CM of stably transfected cells: conditioned medium; for increase of miR expression over controls after stable transfection: miR-EGFP stable transfection in ovarian cancer cells", "procedure": "as §1, §2\nLentiviruses expressing miR-484 were produced in 293FT cell lines (Invitrogen), by calcium phosphate transfection. To this purpose, the System Biosciences (SBI, USA) miR Precursor Constructs were used, containing dual expression of the specific miR and the copGFP fluorescent marker, for simple identification and monitoring of cells positive for transfection and transduction. Conditioned media containing viruses was harvested 72 hours after transfection, and used to transduce epithelial ovarian cancer cell lines (EOC). In particular, SKOV-3 and MDAH-2774 were transduced with viruses expressing either GFP alone (called hereafter empty vector) or GFP and precursor of miR-484, and then monitored for their fluorescence expression."}, "HUVEC cells [6]": {"test_system": "HUVEC cells", "assay": "Tube formation assay on HUVEC cells with conditioned media from miR-484 expressing ovarian carcinoma cells", "type": "cell-based", "settings": "CM from MDAH-2774 or SK-OV3 overexpressing miR-484", "procedure": "Wells from a 48-well plate were filled with […] of matrigel (BD, non growth factor reduced 8-10 ug/ul) and let solidify at 37° C. for 1 hour. HUVEC cells (ATCC, 1×10^5) resuspended in […] of medium were then layered onto the matrigel layer and monitored over the time for the formation of tube-like structures. Time-lapse video microscopy (Leica) was used to create a movie of this process, collecting images every 5 minutes for up to 20 hours. Media used to resuspend endothelial cells were 1—complete medium for endothelial cells, used as positive control, 2—Serum reduced medium (2%), used as negative control, 3—conditioned medium (plus 2% serum) from […] or MDAH-2774 transduced with scrambled-miR or miR-484."}, "MDAH-2774 cells [7]": {"test_system": "MDAH-2774 cells", "assay": "In vivo growth and susceptibility to Carboplatin+Taxol of xenografts expressing miR-484 (caliper)", "set-up": "species or system nude mice", "procedure": "(§7) Two approaches were used to evaluate the effects of miR-484 expression on in vivo chemosensitivity: 1) MDAH-2774 cells scrambled-miR (right flank) or miR-484 (left flank) and SKOV-3 scrambled-miR (right flank) or miR-484 (left flank) were injected and treated with intraperitoneal administration of Carboplatin (15 mg/kg) plus Taxol (5 mg/kg) twice a week, for 3 weeks. Tumor growth was follow by caliper measurement and/or by GFP visualization using the Ivis Lumina, Caliper Lifesciences. 2) Direct intratumoral delivery of lentiviruses expressing scrambled-miR (right flank) or miR484 (left flank) associated with carboplatin (15 mg/kg) plus taxol (5 mg/kg) intraperitoneal treatment.\nAthymic female nude mice (8/group) were subcutaneously injected on both dorsal flanks with 100 ul of PBS containing 1.5×10^6 MDAH-2774 cells scrambled-miR (right flank) or miR-484 (left flank).\n(§8) Same was carried out with SKOV-3, except that 2.2×10^6 cells have been injected. When tumor masses became visible treatment with CBDCA (15 mg/kg) and Tax (5 mg/kg) was started. Drugs were delivered diluted in 200 ul of PBS and intraperitoneally injected twice a week, for 4 weeks. Tumor masses were measured with a caliper twice a week, for 4 weeks. Moreover, exploiting the expression of GFP fluorescent marker by the ovarian cancer cells utilized, mice have been anesthetized and tumor masses imaged by the Ivis Lumina, Caliper Lifesciences, once a week, for 4 weeks. Mice were then sacrificed and tumor masses excised and included in OCT for further analyses."}, "VEGFB [8]": {"test_system": "VEGFB", "assay": "Luciferase miRNA target reporter assay and western blot", "type": "cell-based, human", "settings": "luciferase and western blot analyses", "procedure": "as §3, §4, §5"}, "[9]": {"test_system": "MDAH-2774 xenograft tumors", "assay": "Vascular density (CD34, Chalkley eyepiece method) in xenograft tumors", "type": "in vivo, mice", "settings": "MDAH-2774 xenografts transduced with miR-484; 7 tumors", "procedure": "(§9) Tumor sections (2 μm thick) were cut and for formalin fixed paraffin embedded sample deparaffinization was achieved trough graded alcohols. Primary antibody against CD34 was applied following manufacturer's instruction. Vascular density (CD34+) was assessed using the Chalkley eyepiece method. Whole tumor sections were scanned at low magnification under a conference microscope by two observers. Three areas with the highest vascular density (vascular hot-spots) were identified. At high magnification (×400) a 25-point Chalkley-Eyepiece graticule was applied to each hot-spot and oriented to permit the maximum number of points to hit on or within blood vessels. The mean value of the three counts represents the vascular density of the tumor."}, "SK-OV3 xenograft tumors": {"test_system": "SK-OV3 xenograft tumors", "assay": "Vascular density (CD34, Chalkley eyepiece method) in xenograft tumors", "type": "in vivo, mice", "settings": "SK-OV3 xenografts transduced with miR-484; 7 tumors", "procedure": "as §9"}, "VEGFR2 [10]": {"test_system": "VEGFR2", "assay": "Luciferase and western blot after miR transfection in HUVEC cells", "type": "cell-based", "settings": "luciferase and western blot analyses", "procedure": "as §3"}, "SKOV-3 cells [11]": {"test_system": "SKOV-3 cells", "assay": "In vivo growth and susceptibility to Carboplatin+Taxol of xenografts expressing miR-484 (EGFP imaging)", "set-up": "species or system nude mice", "settings": "SK-OV3 cells expressing miR-484, EGFP fluorescence imaging", "procedure": "as §7, §8"}, "MDAH-2774 cells [12]": {"test_system": "MDAH-2774 cells", "assay": "Intratumoral delivery of lentivirus expressing miR-484 with CBDCA+Tax treatment", "type": "in vivo, nude mice", "settings": "CBDCA+Tax biweekly for 3 weeks, tumor growth after 21 days", "procedure": "as §7"}, "VEGFB [13]": {"test_system": "VEGFB", "assay": "Western blot for VEGFB in cell lines stably transduced with miR-484", "type": "cell-based", "settings": "MDAH-2774 or SKOV-3 stably transduced with miR-484 vs scr-vector; western blot (data not shown)"}, "[14]": {"settings": "CBDCA and Tax treatment, 7 mice, miR-484 expressing tumors"}}, "note": "Several values for one entry are separate records, joined by “and”; a condition that tells them apart may be missing. Equal values may be shown once. Entries after “also recorded” stand apart in the source; their conditions may differ.", "data": [{"substance": "miR-296: microRNA miR-296 (SEQ ID NO: 9), over-expressed via pre-miR-296 transfection or stable miR-296-EGFP transfection (AGGGCCCCCCCUCAAUCCUGU; listed as RNA, chemistry not given here; listed as Homo sapiens)", "values": [{"measurement": "time within which secreted miR enters HUVEC cells", "setting": "HUVEC cells [1]", "value": "≤ 24", "unit": "h"}, {"measurement": "expression of VEGFR2 on endothelial cells", "setting": "VEGFR2 [2]", "value": "significantly increase"}, {"measurement": "endogenous levels of HGS", "setting": "HGS", "value": "modulated"}, {"measurement": "in vitro sensitivity to CBDCA and Tax", "setting": "SKOV-3 cells [3]", "value": "did not significantly affect"}, {"measurement": "in vitro sensitivity to CBDCA and Tax", "setting": "MDAH-2774 cells [4]", "value": "did not significantly affect"}, {"measurement": "miR in the CM of stably transfected cells", "setting": "[5]", "value": "found"}, {"measurement": "increase of miR expression over controls after stable transfection", "setting": "[5]", "value": "≥ 2", "unit": "fold"}]}, {"substance": "miR-484: microRNA hsa-miR-484 (SEQ ID NO: 11), over-expressed via lentiviral miR precursor construct or pre-miR-484 transfection (UCAGGCUCAGUCCCCUCCCGAU; listed as RNA, chemistry not fully specified; listed as Homo sapiens)", "values": [{"measurement": "formation of tube like structures by HUVEC", "setting": "HUVEC cells [6]; 6 hours on 3D matrigel", "value": "impaired"}, {"measurement": "formation of tube like structures by HUVEC", "setting": "HUVEC cells [6]; 20 hrs", "value": "abolished; also recorded: reduces the ability of HUVEC to properly form and maintain tube-like structures"}, {"measurement": "mice in which tumor volume formed by miR-expressing cells was larger than control EGFP-expressing cells", "setting": "MDAH-2774 cells [7]; 15 days after subcutaneous inoculation, before treatment", "value": "6/8"}, {"measurement": "increase of tumor size with respect to day 0 at the end of the treatment", "setting": "MDAH-2774 cells [7]; [14]", "value": 1.3, "unit": "fold"}, {"measurement": "range of tumor size increase with respect to day 0", "setting": "MDAH-2774 cells [7]; [14]", "value": "0.8-1.8 fold"}, {"measurement": "time within which secreted miR enters HUVEC cells", "setting": "HUVEC cells [1]", "value": "≤ 24", "unit": "h"}, {"measurement": "expression of VEGFR2 on endothelial cells", "setting": "VEGFR2 [2]", "value": "significantly decrease"}, {"measurement": "endogenous levels of VEGFB", "setting": "VEGFB [8]", "value": "modulated"}, {"measurement": "mean microvessel density", "setting": "[9]", "value": "10±6.2 and 10"}, {"measurement": "range of microvessel density", "setting": "[9]", "value": "4-22"}, {"measurement": "mean microvessel density", "setting": "SK-OV3 xenograft tumors", "value": "9±5.5 and 9"}, {"measurement": "range of microvessel density", "setting": "SK-OV3 xenograft tumors", "value": "1-18"}, {"measurement": "endogenous levels of VEGFR2", "setting": "VEGFR2 [10]", "value": "modulated"}, {"measurement": "in vitro sensitivity to CBDCA and Tax", "setting": "SKOV-3 cells [3]", "value": "did not significantly affect"}, {"measurement": "in vitro sensitivity to CBDCA and Tax", "setting": "MDAH-2774 cells [4]", "value": "did not significantly affect"}, {"measurement": "sensitivity to treatment", "setting": "SKOV-3 cells [11]; CBDCA+Tax", "value": "significantly increased"}, {"measurement": "growth of the primary tumor", "setting": "SKOV-3 cells [11]", "value": "did not affect"}, {"measurement": "cases in which drug sensitivity increased", "setting": "MDAH-2774 cells [12]", "value": "6/6"}, {"measurement": "VEGFB expression", "setting": "VEGFB [13]", "value": "down-regulated"}, {"measurement": "miR in the CM of stably transfected cells", "setting": "[5]", "value": "increased"}, {"measurement": "increase of miR expression over controls after stable transfection", "setting": "[5]", "value": "≥ 2", "unit": "fold"}]}]}
